Test results: patent publication US11279733B2, “Peptide antibiotics” (priority 2017, dated 2022)
Converted amounts (≈) assume the structure as drawn. Like-named read-outs stand apart in the source and are kept apart here. Positions of bridges follow the written chain, without caps; N, C: chain ends. Non-standard residues stand in square brackets, D forms with d. Residues, ends and D or L forms follow the SMILES beside them. *: point of attachment. Bip = N[C@@H](Cc1ccc(-c2ccccc2)cc1)C(=O)O; Decanoyl(3R-OH) = CCCCCCC[C@@H](O)CC(=O)*; X11 = CCCCCCCNc1ccc(C(=O)*)cc1; X13 = CCCCCCCCCC(O)CC(=O)*; dDab = NCC[C@@H](N)C(=O)O; Octanoyl = CCCCCCCC(=O)*; Dab = NCC[C@H](N)C(=O)O

Key:
[1] = system: P. aeruginosa GN_043, PmxR
How it was run: (§1)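 Mid-log cultures grown in Mueller Hinton broth at 37° C were tested by 2-fold broth microdilution at 5×10^5 CFU/mL final. Compounds were dissolved in water and tested over a final range of 32 to 0.015 μg/mL.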

[2] = system: P. aeruginosa ATCC 27853; details: ATCC 27853
How it was run: as §1

[3] = system: K. pneumoniae ATCC 13883; details: ATCC 13883
How it was run: as §1

[4] = system: K. pneumoniae GN_106, PmxR; details: GN 106, PmxR
How it was run: as §1

[5] = system: K. pneumoniae ATCC BAA-2146, NDM-1 pos; details: ATCC BAA-2146
How it was run: as §1

[6] = system: A. baumannii GN_093 PmxR; details: GN 093 PmxR
How it was run: as §1

[7] = system: S. aureus ATCC 25923, MSSA; details: ATCC 25923
How it was run: as §1

[8] = system: K. pneumoniae GN_102 PmxR; details: GN 102 PmxR
How it was run: as §1

[9] = system: P. aeruginosa GN_105, PmxR; details: GN 105, PmxR
How it was run: as §1

[10] = system: E. coli ATCC 25922; details: ATCC 25922
How it was run: as §1

[11] = system: A. baumannii ATCC 19606; details: ATCC 19606
How it was run: as §1

[12] = system: K. pneumoniae ATCC 700603, MDR; details: ATCC 700603
How it was run: as §1

[13] = in vitro; details: human
Protocol: Cytotoxicity of the synthesised peptides was evaluated by comparison with commercially available colistin (polymyxin E), polymyxin B (Sigma chemical Co., St. Louis, Mo., U.S.A.) and synthetic octapeptin C4 by conducting lactate dehydrogenase (LDH) assay. CC50 values calculated based on curve fitting of dose dependent inhibition of cell growth represented the cytotoxicity of the peptide. Human kidney 2 (HK2) cells were seeded as 2000 cells per well in a 384 well cell culture plate in a final volume of 20 μL in DMEM/F12 medium (Invitrogen #11330057), in which 10% of FBS was added. Cells were incubated for 24 hours at 37° C., 5% CO2 to allow cells to attach to the plates. Similar conditions were employed for HEK293 and HepG2 cytotoxicity assays.
Colistin and polymyxin B were tested from a range of 2 mM to 0.9 μM. 120 μL of the 1 mM stock solutions in water of each synthesised peptide were freeze-dried and processed for LDH assay. After freeze-dry procedure, the compounds were reconstituted into 600 μM solutions using culture media. All tested compounds were diluted from 600 μM to 0.27 μM in 3-fold dilutions. Then 20 μL of each dilution was added into 20 uL of culture medium in quadruplicate to reach the final concentrations. The cells were incubated with the compounds for 24 h at 37° C., 5% CO2. After the incubation, 5 μL of culture medium was added to 50 μL of LDH assay buffer and incubated for 1 h at room temperature. The absorbance was read at 450 nm using Polarstar. The data was then analysed by Prism software. […] Nephrotoxicity Assessment in Human Proximal Tubule Cells.

Structure (SMILES)	MIC P. aeruginosa GN_043, PmxR ([1]; P. aeruginosa GN_043, PmxR) [µg/mL]	MIC P. aeruginosa ATCC 27853 [2] [µg/mL]	MIC K. pneumoniae ATCC 13883 [3] [µg/mL]	MIC K. pneumoniae GN_106, PmxR [4] [µg/mL]	MIC K. pneumoniae ATCC BAA-2146, NDM-1 pos [5] [µg/mL]	MIC A. baumannii GN_093 PmxR [6] [µg/mL]	MIC S. aureus ATCC 25923, MSSA [7] [µg/mL]	MIC K. pneumoniae GN_102 PmxR [8] [µg/mL]	MIC P. aeruginosa GN_105, PmxR [9] [µg/mL]	MIC E. coli ATCC 25922 [10] [µg/mL]	MIC A. baumannii ATCC 19606 [11] [µg/mL]	MIC K. pneumoniae ATCC 700603, MDR [12] [µg/mL]	CC50 at 24 h [13] [µM]	MIC P. aeruginosa GN_043, PmxR [1] [µg/mL]
CCCCCCC[C@@H](O)CC(=O)N[C@H](CCN)C(=O)N[C@H]1CCNC(=O)[C@H]([C@@H](C)O)NC(=O)[C@H](CCN)NC(=O)[C@H](CCN)NC(=O)[C@H](Cc2ccc(-c3ccccc3)cc2)NC(=O)[C@@H](Cc2ccccc2)NC(=O)[C@H](CCN)NC1=O [compound 5607, 3(R)OH-nC9CO-D-Dab-cyc[L-Dab-L-Dab-D-Phe-L-Bip-L-Dab-L-Dab-L-Thr]] ({Decanoyl(3R-OH)}-[dDab][Dab][Dab][dF][Bip][Dab][Dab]T; lactam 2-C)	2 (≈ 1.75 µM)	4 (≈ 3.5 µM)	16 (≈ 14 µM)	32 (≈ 28 µM)	4 (≈ 3.5 µM)	>32	4 (≈ 3.5 µM)	32 (≈ 28 µM)	2 (≈ 1.75 µM)	8 (≈ 7 µM)	8 (≈ 7 µM)	4 (≈ 3.5 µM)	19	–
CCCCCCCC(=O)N[C@H](CCN)C(=O)N[C@H]1CCNC(=O)[C@H]([C@@H](C)O)NC(=O)[C@H](CCN)NC(=O)[C@H](CCN)NC(=O)[C@H](CC(C)C)NC(=O)[C@@H](Cc2ccccc2)NC(=O)[C@H](CCN)NC1=O [compound 6399, nC7CO-D-Dab-cyc[L-Dab-L-Dab-D-Phe-L-Leu-L-Dab-L-Dab-L-Thr]] (Octanoyl-[dDab][Dab][Dab][dF]L[Dab][Dab]T; lactam 2-C)	8 (≈ 8.1 µM)	1 (≈ 1.01 µM)	>32	>32	>32	>32	>32	>32	>32	8 (≈ 8.1 µM)	>32	16 (≈ 16.2 µM)	> 300	–
CCCCCCCCCC(O)CC(=O)N[C@H](CCN)C(=O)N[C@H]1CCNC(=O)[C@H](CC(C)C)NC(=O)[C@H](CCN)NC(=O)[C@H](CCN)NC(=O)[C@H](CC(C)C)NC(=O)[C@@H](Cc2ccccc2)NC(=O)[C@H](CCN)NC1=O (stereo partly drawn) [compound 5014, 3OH-nC11CO-D-Dab-cyc[L-Dab-L-Dab-D-Phe-L-Leu-L-Dab-L-Dab-L-Leu]] (X13-[dDab][Dab][Dab][dF]L[Dab][Dab]L; lactam 2-C)	–	4 (≈ 3.73 µM)	4 (≈ 3.73 µM)	–	16 (≈ 14.9 µM)	–	4 (≈ 3.73 µM)	–	32 (≈ 29.8 µM)	2 (≈ 1.86 µM)	8 (≈ 7.46 µM)	8 (≈ 7.46 µM)	19	4 (≈ 3.73 µM)
CCCCCCCNc1ccc(C(=O)N[C@H](CCN)C(=O)N[C@H]2CCNC(=O)[C@H]([C@@H](C)O)NC(=O)[C@H](CCN)NC(=O)[C@H](CCN)NC(=O)[C@H](CC(C)C)NC(=O)[C@@H](Cc3ccccc3)NC(=O)[C@H](CCN)NC2=O)cc1 [compound 6403, 4(C7H15NH)PheCO-D-Dab-cyc[L-Dab-L-Dab-D-Phe-L-Leu-L-Dab-L-Dab-L-Thr]] (X11-[dDab][Dab][Dab][dF]L[Dab][Dab]T; lactam 2-C)	32 (≈ 29.6 µM)	16 (≈ 14.8 µM)	>64	>32	>64	>32	>32	>32	>32	>64	>64	>64	> 300	–
